# Paper PMC11070402, “New antiproliferative 3-substituted oxindoles inhibiting EGFR/VEGFR-2 and tubulin polymerization” (Molecular Diversity, 2023)
# Where “and” joins values, the source holds several entries; their conditions need not be identical. Identical values can stand only once. Like-named read-outs stand apart in the source and are kept apart here.
# Experiments:
# [1] = test system: MCF-7 (human breast cancer); assay: Cytotoxicity versus MCF-7 cell line (MTT assay); conditions: MCF7, read-out: MCF-7 (IC50 ± SD, uM)
# [2] = test system: Human Skin Fibroblasts (HSF) cells; assay: Margin of safety: cytotoxicity on human skin fibroblasts (SRB assay); assay type: cell-based
# Procedure: Cell viability was assessed via SRB assay. Aliquots of 100 µl cell suspension (5 × 10^3 cells) were in 96-well plates and incubated in a complete media for 24 h. […] After 72 h of drug exposure, cells were fixed by replacing media with 150 µl of 10% TCA and incubated at 4 °C for 1 h. The TCA solution was removed, and the cells were washed 5 times with distilled water. Aliquots of […] SRB solution (0.4 w/v) were added and incubated in a dark place at room temperature for 10 min. Plates were washed 3 times with 1% acetic acid and allowed to air-dry overnight. Then, 150 µl of TRIS (10 mM) was added to dissolve the protein-bound SRB stain; the absorbance was measured at 540 nm using a BMG LAB TECH®-FLUO star Omega microplate reader (Ortenberg, Germany).
# tubulin [3] = test system: tubulin; design: method as in PMID 33038796; conditions: read-out: tubulin polymerization IC50; cited from earlier work
# colchicine-binding site = target: colchicine-binding site; design: method as in PMID 34649064; conditions: read-out: competitive inhibition at the colchicine-binding site IC50; cited from earlier work
# EGFR = target: T1, EGFR (Homo sapiens, UniProt P00533); design: method as in PMID 34832895; conditions: cited from earlier work
# T1 construct: purchased
# tubulin [4] = test system: tubulin; design: method as in PMID 34832895; conditions: read-out: IC50 tubulin assembly; cited from earlier work
# tubulin [5] = assay: Tubulin polymerization inhibition assay; assay type: biochemical
# EGFR^L858R/T790M = test system: EGFR^L858R/T790M; design: method as in PMID 34798457; conditions: cited from earlier work
# EGFR^WT kinase = target: EGFR^WT kinase; design: method as in PMID 34798457; conditions: cited from earlier work
# VEGFR-2 = conditions: cited from earlier work
# [6] = test system: 60 human cancer cell lines; assay: NCI one-dose assay against sixty NCI cancer cell lines; assay type: cell-based
# Procedure: (§1) All novel scaffolds 6a–j were carefully selected by the National Cancer Institute (NCI), Bethesda, USA, to elucidate their cytotoxic activity versus 60 human cancer cell lines at 10 µM as a single-dose concentration after a 48 h incubation period.
# (§2) National Cancer Institution selected all the synthesized 6a–j (NCI), Bethesda, USA, for in vitro one-dose antitumor assay. The methodology protocol for the NCI anticancer screening was reported in detail elsewhere (http://www.dtp.nci.nih.gov). The anticancer assay was performed in full NCI 60 cell lines extracted from nine tumor cell lines, including leukemia, melanoma, lung, colon, CNS, ovarian, renal, prostate, and breast cancer cell lines.
# SR = assay: NCI one-dose assay, SR; assay type: cell-based; conditions: Homo sapiens; SR (Leukemia), 10 uM single dose; read-out: Growth inhibition %
# Procedure: as §1, §2
# NCI-H23 = assay: NCI one-dose assay, NCI-H23; assay type: cell-based; conditions: Homo sapiens; NCI-H23 (Non-Small Cell Lung Cancer), 10 uM single dose; read-out: Growth inhibition %
# Procedure: as §1, §2
# UO-31 = assay: NCI one-dose assay, UO-31; assay type: cell-based; conditions: Homo sapiens; UO-31 (Renal Cancer), 10 uM single dose; read-out: Growth inhibition %
# Procedure: as §1, §2
# [7] = test system: HOP-92 (non-small cell lung cancer cell line); assay: NCI one-dose assay, HOP-92; assay type: cell-based; conditions: Homo sapiens; HOP-92 (Non-Small Cell Lung Cancer), 10 uM single dose; read-out: Growth inhibition %
# Procedure: as §1, §2
# MOLT-4 = assay: NCI one-dose assay, MOLT-4; assay type: cell-based; conditions: Homo sapiens; MOLT-4 (Leukemia), 10 uM single dose; read-out: Growth inhibition %
# Procedure: as §1, §2
# T-47D = assay: NCI one-dose assay, T-47D; assay type: cell-based; conditions: Homo sapiens, T47D; T-47D (Breast Cancer), 10 uM single dose; read-out: Growth inhibition %
# Procedure: as §1, §2
# K-562 = assay: NCI one-dose assay, K-562; assay type: cell-based; conditions: Homo sapiens, K562; K-562 (Leukemia), 10 uM single dose; read-out: Growth inhibition %
# Procedure: as §1, §2
# [8] = test system: SNB-75 cells (CNS cancer cell line); assay: NCI one-dose assay, SNB-75; assay type: cell-based; conditions: Homo sapiens; SNB-75 (CNS Cancer), 10 uM single dose; read-out: Growth inhibition %
# Procedure: as §1, §2
# MCF-7 = assay: NCI one-dose assay, MCF-7; assay type: cell-based, human; conditions: Homo sapiens, MCF7, MCF7 (Breast Cancer), 10 uM single dose; read-out: Growth inhibition %
# Procedure: as §1, §2
# tubulin [9] = test system: tubulin; design: method as in doi:10.1016/j.molstruc.2022.132345; conditions: read-out: anti-tubulin activity IC50; cited from earlier work
# EGFR (L858R) = test system: EGFR (L858R); design: method as in PMID 29758406; conditions: read-out: IC50 against EGFR (L858R); cited from earlier work
# EGFR (T790M) = test system: EGFR (T790M); design: method as in PMID 29758406; conditions: read-out: IC50 against EGFR (T790M); cited from earlier work
# c-MET = test system: c-MET; design: method as in PMID 29758406; conditions: read-out: IC50 against c-MET; cited from earlier work
# SK-MEL-5 = assay: NCI one-dose assay, SK-MEL-5; assay type: cell-based; conditions: Homo sapiens; SK-MEL-5 (Melanoma), 10 uM single dose; read-out: Growth inhibition %
# Procedure: as §1, §2
# [10] = test system: NCI/ADR-RES (ovarian cancer cell line); assay: NCI one-dose assay, NCI/ADR-RES; assay type: cell-based; conditions: Homo sapiens; NCI/ADR-RES; 10 µM single dose, 48 h incubation; read-out: cell growth inhibition % (GI %)
# Procedure: as §1, §2
# [11] = CAKI-1 (Renal Cancer), 10 uM single dose, read-out: Growth inhibition %
# [12] = HCT-116 (Colon Cancer), 10 uM single dose, read-out: Growth inhibition %
# [13] = IGROV-1, IGROV1 (Ovarian Cancer), 10 uM single dose, read-out: Growth inhibition %
# [14] = M14 (Melanoma), 10 uM single dose, read-out: Growth inhibition %
# [15] = MDA-MB-231, read-out: Growth inhibition %
# [16] = NCI-H226 (Non-Small Cell Lung Cancer), 10 uM single dose, read-out: Growth inhibition %
# [17] = OVCAR-3 (Ovarian Cancer), 10 uM single dose, read-out: Growth inhibition %
# [18] = OVCAR-8 (Ovarian Cancer), 10 uM single dose, read-out: Growth inhibition %
# [19] = PC-3 (Prostate Cancer), 10 uM single dose, read-out: Growth inhibition %
# [20] = UACC-62 (Melanoma), 10 uM single dose, read-out: Growth inhibition %
# T1 sequence (P00533 25-1210): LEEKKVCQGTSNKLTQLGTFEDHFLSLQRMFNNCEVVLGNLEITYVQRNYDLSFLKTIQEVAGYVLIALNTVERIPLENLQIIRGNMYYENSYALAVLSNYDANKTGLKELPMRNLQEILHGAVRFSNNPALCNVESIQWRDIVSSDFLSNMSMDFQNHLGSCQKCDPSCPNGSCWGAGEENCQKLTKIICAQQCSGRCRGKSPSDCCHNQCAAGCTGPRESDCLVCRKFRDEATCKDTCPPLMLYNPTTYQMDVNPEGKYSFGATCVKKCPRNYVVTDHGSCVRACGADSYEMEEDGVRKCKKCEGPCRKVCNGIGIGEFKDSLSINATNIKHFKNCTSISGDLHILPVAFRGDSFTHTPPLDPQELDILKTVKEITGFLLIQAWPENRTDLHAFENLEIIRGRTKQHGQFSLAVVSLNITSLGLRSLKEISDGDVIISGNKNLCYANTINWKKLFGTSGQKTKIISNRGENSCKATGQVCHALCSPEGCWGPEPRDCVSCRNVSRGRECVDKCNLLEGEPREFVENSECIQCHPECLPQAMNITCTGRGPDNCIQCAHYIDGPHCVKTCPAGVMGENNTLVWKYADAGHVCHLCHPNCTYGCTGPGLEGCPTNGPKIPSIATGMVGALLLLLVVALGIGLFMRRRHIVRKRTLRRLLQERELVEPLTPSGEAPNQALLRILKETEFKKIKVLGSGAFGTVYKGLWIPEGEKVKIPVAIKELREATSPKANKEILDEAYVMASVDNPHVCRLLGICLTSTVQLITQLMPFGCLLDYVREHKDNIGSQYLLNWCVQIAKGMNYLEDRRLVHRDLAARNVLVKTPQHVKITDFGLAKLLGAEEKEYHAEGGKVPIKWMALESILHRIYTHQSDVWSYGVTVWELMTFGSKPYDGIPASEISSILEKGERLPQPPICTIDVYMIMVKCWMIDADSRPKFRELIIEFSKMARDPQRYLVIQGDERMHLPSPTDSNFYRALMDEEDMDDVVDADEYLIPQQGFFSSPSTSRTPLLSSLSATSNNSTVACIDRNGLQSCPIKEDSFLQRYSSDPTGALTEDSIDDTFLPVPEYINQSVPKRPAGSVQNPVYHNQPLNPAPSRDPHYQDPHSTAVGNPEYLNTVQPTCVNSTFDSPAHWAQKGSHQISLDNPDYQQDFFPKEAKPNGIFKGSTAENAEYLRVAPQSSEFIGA
smiles,measurement,setting,value
"O=c1[nH]cc(F)c(=O)[nH]1 [5FU, 5-fluorouracil, reference compound]",IC50,[1],2.02 ± 0.17 µM
same,IC50,"[2]; HSF, Human Skin Fibroblasts, SRB assay, 72 h exposure, read-out: HSF (IC50 ± SD)",5450 ± 20 nM
same,SI (selectivity index),[2]; SI = IC50 for HSF / IC50 for MCF-7 cells,2.70
Cc1cc(-c2cccc(-c3c[nH]c4ccccc34)n2)c2ccccc2n1 [XII],IC50,tubulin [3],5000 nM
COc1ccc2c(/C=C(\C)C(=O)c3cc(OC)c(OC)c([Se]C)c3)c[nH]c2c1 [XI],IC50,colchicine-binding site,1300 nM
COc1cc(OC)c(C=C2C(=O)Nc3cc(Cl)ccc32)c(OC)c1 [XIII],IC50,EGFR,549 nM
same,IC50,tubulin [4],1660 nM
"COc1ccc(/C=C\c2cc(OC)c(OC)c(OC)c2)cc1O [CA-4, combretastatin A4]",%inh Tub,tubulin [5]; conc 0.1 (uM printed only in the CA-4 head),[…]
same,IC50,tubulin [3],2500 nM
C=CC(=O)Nc1cc(Nc2nccc(-c3cn(C)c4ccccc34)n2)c(OC)cc1-n1cccc1CN(C)C [V],IC50,EGFR^L858R/T790M,1.7 nM
same,selectivity versus EGFR^L858R/T790M over EGFR^WT kinase,EGFR^L858R/T790M,about 22 folds
same,IC50,EGFR^WT kinase,37 nM
c1nc(Nc2ccc(N3CCOCC3)cc2)cc(Nc2ccc3[nH]ccc3c2)n1 [VIII],IC50,VEGFR-2; read-out: IC50 against VEGFR-2,1200 nM
Cc1ccc(Nc2cc(Oc3ccc4[nH]ccc4c3)ncn2)cc1S(N)(=O)=O [VII],IC50,VEGFR-2; read-out: IC50 versus VEGFR-2,45 nM
"COc1ccc(C(=O)COc2ccc(/C=C3/C(=O)Nc4cc(Cl)ccc43)cc2)cc1 [Compound 6j, (E/Z)-6-Chloro-3-{4-[2-(4-methoxyphenyl)-2-oxoethoxy]benzylidene}indolin-2-one]",melting point,,165 to 167 °C
same,inhibition at 10 µM,"[6]; ACHN (Renal Cancer), 10 uM single dose, read-out: Growth inhibition %",10.1%
same,inhibition at 10 µM,[6]; [11],23.2%
same,inhibition at 10 µM,[6]; [12],12.2%
same,inhibition at 10 µM,"[6]; HOP-62 (Non-Small Cell Lung Cancer), 10 uM single dose, read-out: Growth inhibition %",16.7%
same,inhibition at 10 µM,[6]; [13],21.5%
same,inhibition at 10 µM,[6]; [14],10.3%
same,inhibition at 10 µM,[6]; [15],12.2%
same,inhibition at 10 µM,[6]; [16],13.2%
same,inhibition at 10 µM,[6]; [17],18.1%
same,inhibition at 10 µM,"[6]; OVCAR-4 (Ovarian Cancer), 10 uM single dose, read-out: Growth inhibition %",11%
same,inhibition at 10 µM,[6]; [18],13.4%
same,inhibition at 10 µM,[6]; [19],33.5%
same,inhibition at 10 µM,"[6]; U-251, U251 (CNS Cancer), 10 uM single dose, read-out: Growth inhibition %",12.9%
same,inhibition at 10 µM,[6]; [20],23.8%
same,inhibition at 10 µM,SR,16.7%
same,inhibition at 10 µM,NCI-H23,10.5%
same,inhibition at 10 µM,UO-31,35.9%
same,inhibition at 10 µM,[7],34.8%
same,inhibition at 10 µM,MOLT-4,30.3%
same,inhibition at 10 µM,T-47D,15.6%
same,inhibition at 10 µM,K-562,22.8%
same,inhibition at 10 µM,[8],36.7%
same,inhibition at 10 µM,MCF-7,34.4%
COc1cc(NC(=O)/C(C#N)=C/c2c[nH]c3ccccc23)cc(OC)c1OC [X],IC50,tubulin [9],18000 nM
CC(C)c1ccc(Cn2cc(-c3cc(-c4ccc(Br)cc4)nc(N)n3)c3ccccc32)cc1 [IV],IC50,EGFR (L858R),99 nM
same,IC50,EGFR (T790M),94 nM
same,IC50,c-MET,595 nM
"COc1ccc(C(=O)COc2ccc(C=C3C(=O)Nc4ccccc43)cc2)cc1 [Compound 6h, 3-{4-[2-(4-Methoxyphenyl)-2-oxoethoxy]benzylidene}indolin-2-one]",melting point,,192 to 194 °C
same,inhibition at 10 µM,"[6]; BT-549 (Breast Cancer), 10 uM single dose, read-out: Growth inhibition %",10.1%
same,inhibition at 10 µM,[6]; [11],26.4%
same,inhibition at 10 µM,"[6]; CCRF-CEM (Leukemia), 10 uM single dose, read-out: Growth inhibition %",14%
same,inhibition at 10 µM,"[6]; HCT-15 (Colon Cancer), 10 uM single dose, read-out: Growth inhibition %",15.2%
same,inhibition at 10 µM,[6]; [12],25.4%
same,inhibition at 10 µM,"[6]; HL-60(TB) (Leukemia), 10 uM single dose, read-out: Growth inhibition %",20.8%
same,inhibition at 10 µM,"[6]; HS 578T (Breast Cancer), 10 uM single dose, read-out: Growth inhibition %",11.3%
same,inhibition at 10 µM,[6]; [13],23.7%
same,inhibition at 10 µM,[6]; [14],12.1%
same,inhibition at 10 µM,[6]; [15],10.8%
same,inhibition at 10 µM,[6]; [16],15.4%
same,inhibition at 10 µM,"[6]; NCI-H522 (Non-Small Cell Lung Cancer), 10 uM single dose, read-out: Growth inhibition %",17.2%
same,inhibition at 10 µM,[6]; [17],18.3%
same,inhibition at 10 µM,[6]; [18],15.9%
same,inhibition at 10 µM,[6]; [19],36.1%
same,inhibition at 10 µM,"[6]; RPMI-8226 (Leukemia), 10 uM single dose, read-out: Growth inhibition %",25.4%
same,inhibition at 10 µM,"[6]; SF-539 (CNS Cancer), 10 uM single dose, read-out: Growth inhibition %",10.7%
same,inhibition at 10 µM,"[6]; SK-OV-3 (Ovarian Cancer), 10 uM single dose, read-out: Growth inhibition %",14.1%
same,inhibition at 10 µM,[6]; [20],31.5%
same,inhibition at 10 µM,SR,19.2%
same,inhibition at 10 µM,SK-MEL-5,17.8%
same,inhibition at 10 µM,UO-31,37.5%
same,inhibition at 10 µM,[7],11.7%
same,inhibition at 10 µM,MOLT-4,34.3%
same,inhibition at 10 µM,T-47D,26.4%
same,inhibition at 10 µM,K-562,39.7%
same,inhibition at 10 µM,[8],23.6%
same,inhibition at 10 µM,[10],43.7%
same,inhibition at 10 µM,MCF-7,41.3%
